Assay results taken from US20040121316A1 (priority 2002, published 2004).
Like-named read-outs stand apart in the source and are kept apart here.

What was measured:
[1] = tested on: HIV-1 30N82I88D; assay: microbe, parasite or virus in culture; format: cell-based
[2] = tested on: HIV-1 46I50V; assay: microbe, parasite or virus in culture; format: cell-based
[3] = tested on: HIV-1 48V54V82A; assay: microbe, parasite or virus in culture; format: cell-based
[4] = tested on: HIV-1 48V82A90M; assay: microbe, parasite or virus in culture; format: cell-based
[5] = tested on: HIV-1 84V90M; assay: microbe, parasite or virus in culture; format: cell-based; settings: Human immunodeficiency virus 1, read-out: Cell-based assay (MT-4) EC50/nM 84V90M
[6] = tested on: HIV-1 48V54V82S; assay: microbe, parasite or virus in culture; format: cell-based
[7] = target: 84V90M HIV protease (Human immunodeficiency virus type 1 group M subtype B, UniProt P04585, I572V/L578M); assay: biochemical; parameters: species or system HIV-1
[8] = tested on: WT HIV-1; assay: microbe, parasite or virus in culture; format: cell-based
[9] = tested on: recombinant HIV-1 10I 48V 71V 82A 90M; assay: microbe, parasite or virus in culture; format: cell-based
[10] = tested on: recombinant HIV-1 10I 84V 71V 73S 90M; assay: microbe, parasite or virus in culture; format: cell-based
[11] = tested on: recombinant HIV-1 46I 47V 50V; assay: microbe, parasite or virus in culture; format: cell-based
[12] = tested on: recombinant HIV-1 30N 50S 82I 88D; assay: microbe, parasite or virus in culture; format: cell-based
[13] = tested on: recombinant HIV-1 10I 48V 54V 82A; assay: microbe, parasite or virus in culture; format: cell-based
[14] = tested on: recombinant HIV-1 48V 54V 71V 82S; assay: microbe, parasite or virus in culture; format: cell-based
[15] = tested on: WT HIV-1; assay: microbe, parasite or virus in culture; format: cell-based; settings: Human immunodeficiency virus 1, MT4, read-out: Cell-based assay (MT-4) EC50/nM WT
[16] = tested on: recombinant HIV-1 strains with resistance mutations in the protease gene; assay: Cross-Resistance Profile Assay, whole panel; format: cell-based; settings: {}
[17] = tested on: wild-type HIV-1 strain IIIB; assay: microbe, parasite or virus in culture; format: cell-based; settings: Human immunodeficiency virus 1, IIIB
[18] = in vitro; settings: human
[19] = tested on: mutant HIV-1 I84V/L90M; assay: Resistance Evaluation, I84V/L90M fold change; format: cell-based; settings: EC50 of mutant I84V/L90M relative to wild type; class symbols
[20] = Human immunodeficiency virus 1, read-out: Cell-based assay (MT-4) EC50/nM 30N82I88D
[21] = Human immunodeficiency virus 1, read-out: Cell-based assay (MT-4) EC50/nM 46I50V
[22] = Human immunodeficiency virus 1, read-out: Cell-based assay (MT-4) EC50/nM 48V54V82A
[23] = MT-4, 30N82I88D, read-out: Cell-based assay (MT-4) EC50/nM 30N82I88D
[24] = MT-4, 46I50V, read-out: Cell-based assay (MT-4) EC50/nM 46I50V
[25] = MT-4, 48V54V82A, read-out: Cell-based assay (MT-4) EC50/nM 48V54V82A
[26] = MT-4, 48V82A90M, read-out: Cell-based assay (MT-4) EC50/nM 48V82A90M
[27] = MT-4, 48V54V82S, read-out: Cell-based assay (MT-4) EC50/nM 48V54V82S
[28] = Human immunodeficiency virus 1, read-out: Cell-based assay (MT-4) EC50/nM WT

Question: Which results are given for `CCOP(=O)(COc1ccc(CC2C(O)C(O)C(Cc3ccc(OC)cc3)N(Cc3cccc(N)c3)C(=O)N2Cc2cccc(N)c2)cc1)OCC` (stereo not drawn) [OCH3, Ph-mNH2, OCH2PO3Et2]?
Answer: EC50 [1, 20]: 18 nM; EC50 [2, 21]: 36 nM; EC50 [3, 22]: 202 nM; EC50 ([4]; Human immunodeficiency virus 1, read-out: Cell-based assay (MT-4) EC50/nM 48V82A90M): 102 nM; EC50 [5]: 535 nM; EC50 ([6]; Human immunodeficiency virus 1, read-out: Cell-based assay (MT-4) EC50/nM 48V54V82S): 117 nM; IC50 [7]: 56 nM

Question: What does the source list for `CCOP(=O)(COc1ccc(CC2C(O)C(O)C(Cc3ccc(OC)cc3)N(Cc3ccc(O)cc3)C(=O)N2Cc2ccc(O)cc2)cc1)OCC` (stereo not drawn) [OCH3, Ph-pOH, OCH2PO3Et2]?
Answer: EC50 ([8]; read-out: Cell-based assay (MT-4) EC50/nM WT): 29 nM; EC50 [1, 23]: 23 nM; EC50 [2, 24]: 68 nM; EC50 [3, 25]: 67 nM; EC50 [4, 26]: 48 nM; EC50 [6, 27]: 106 nM

Question: For `CCOP(=O)(COc1ccc(CC2C(O)C(O)C(Cc3ccc(OC)cc3)N(Cc3cccnc3)C(=O)N2Cc2cccnc2)cc1)OCC` (stereo not drawn) [OCH3, m-pyridine, OCH2PO3Et2], which EC50 [1, 23] is on record?
Answer: The EC50 was 106 nM.

Question: And the EC50 [2, 24]?
Answer: The EC50 was 352 nM.

Question: What about the EC50 [3, 25] of the same compound?
Answer: Its EC50 is 1020 nM.

Question: And the EC50 [4, 26]?
Answer: The EC50 was 480 nM.

Question: What about the EC50 [6, 27] of the same compound?
Answer: The EC50 was 970 nM.

Question: Which results are given for `CCOP(=O)(CCNC(=O)Oc1ccc(CC2C(O)C(O)C(Cc3ccc(OC)cc3)N(Cc3cccc(N)c3)C(=O)N2Cc2cccc(N)c2)cc1)OCC` (stereo not drawn) [OCH3/Ph-mNH2/OCONH(CH2)2PO3Et2]?
Answer: EC50 ([9]; read-out: Cell-based assay (MT-4) EC50/nM 48V 82A 90M, MT-4 cells, strain printed as 48V 82A 90M): 215 nM; EC50 ([10]; read-out: Cell-based assay (MT-4) EC50/nM 84V 90M, MT-4 cells, strain printed as 84V 90M): 2260 nM; EC50 ([11]; MT-4 cells, strain printed as 47I50V, read-out: Cell-based assay (MT-4) EC50/nM 47I 50V): 184 nM; EC50 ([12]; MT-4 cells, strain printed as 30N 82I 88D, read-out: Cell-based assay (MT-4) EC50/nM 30N 82I 88D): 77 nM; EC50 ([13]; MT-4 cells, strain printed as 48V 54V 82A, read-out: Cell-based assay (MT-4) EC50/nM 48V 54V 82A): 262 nM; EC50 ([14]; MT-4 cells, strain printed as 48V 54V 82S, read-out: Cell-based assay (MT-4) EC50/nM 48V 54V 82S): 214 nM

Question: With `CCOP(=O)(COc1ccc(CC2C(O)C(O)C(Cc3ccc(OC)cc3)N(Cc3ccc(O)cc3)C(=O)N2Cc2ccc(O)cc2)cc1)OCC` (stereo not drawn) [OCH3/Ph-pOH/OCH2PO3Et2] as the compound, how does the EC50 ([9]; Human immunodeficiency virus 1, MT4, read-out: Cell-based assay (MT-4) EC50/nM 48V 82A 90M) read?
Answer: The EC50 was 54 nM.

Question: And the EC50 ([10]; Human immunodeficiency virus 1, MT4, read-out: Cell-based assay (MT-4) EC50/nM 84V 90M)?
Answer: The EC50 was 148 nM.

Question: What about the EC50 ([11]; Human immunodeficiency virus 1, MT4, read-out: Cell-based assay (MT-4) EC50/nM 47I 50V) of the same compound?
Answer: Its EC50 is 90 nM.

Question: And the EC50 [15]?
Answer: Its EC50 is 30 nM.

Question: What about the EC50 ([12]; Human immunodeficiency virus 1, MT4, read-out: Cell-based assay (MT-4) EC50/nM 30N 82I 88D) of the same compound?
Answer: The EC50 was 25 nM.

Question: What about the EC50 ([13]; Human immunodeficiency virus 1, MT4, read-out: Cell-based assay (MT-4) EC50/nM 48V 54V 82A) of the same compound?
Answer: The EC50 was 70 nM.

Question: And the EC50 ([14]; Human immunodeficiency virus 1, MT4, read-out: Cell-based assay (MT-4) EC50/nM 48V 54V 82S)?
Answer: Its EC50 is 129 nM.

Question: For `CC(C)c1nc(CN(C)C(=O)N[C@H](C(=O)N[C@@H](Cc2ccccc2)C[C@H](O)[C@H](Cc2ccccc2)NC(=O)OCc2cncs2)C(C)C)cs1` [Ritonavir, reference compound], which “Total No. of Resistant Viruses” value [16] is on record?
Answer: Its value is 10.

Question: And the EC50 [17]?
Answer: The EC50 was less than 50 nM.

Question: Which “Total No. of Resistant Viruses” value [16] does the source give for `CC(C)(C)NC(=O)[C@@H]1C[C@@H]2CCCC[C@@H]2CN1C[C@@H](O)[C@H](Cc1ccccc1)NC(=O)[C@H](CC(N)=O)NC(=O)c1ccc2ccccc2n1` [Saquinavir, reference compound] here?
Answer: Its value is 4.

Question: And the EC50 [17]?
Answer: The EC50 was less than 50 nM.

Question: Which results are given for `CCOP(=O)(COc1ccc(CC(NC(=O)OC2COC3OCCC23)C(O)CN(CC(C)C)S(=O)(=O)c2ccc(OC)cc2)cc1)OCc1ccccc1` (stereo not drawn) [drawing 608 R1=OEt R2=OBn]?
Answer: CC50 [18]: < 5000 nM; EC50 [17]: < 50 nM

Question: Which CC50 [18] does the source give for `COc1ccc(S(=O)(=O)N(CC(C)C)CC(O)C(Cc2ccc(OCP(=O)(O)O)cc2)NC(=O)OC2COC3OCCC23)cc1` (stereo not drawn) [drawing 608 R1=OH R2=OH] here?
Answer: Its CC50 is greater than 50000 nM.

Question: And the EC50 [17]?
Answer: The EC50 was 500 to 5000 nM.

Question: What about the I84V/L90M fold change [19] of the same compound?
Answer: The I84V/L90M fold change was “− (≦3)”.

Question: For `CCOP(=O)(CCCNC(=O)c1cccc(CN2C(=O)N(Cc3ccc4[nH]nc(N)c4c3)C(Cc3ccccc3)C(O)C(O)C2Cc2ccccc2)c1)OCC` (stereo not drawn) [drawing 809], which EC50 [8, 28] is on record?
Answer: Its EC50 is 188 nM.

Question: And the EC50 [1, 20]?
Answer: Its EC50 is 666 nM.

Question: And the EC50 [2, 21]?
Answer: The EC50 was 319 nM.

Question: What about the EC50 [3, 22] of the same compound?
Answer: Its EC50 is 240 nM.

Question: What about the EC50 [5] of the same compound?
Answer: The EC50 was 476 nM.

Question: What about the IC50 [7] of the same compound?
Answer: Its IC50 is 10 nM.

Question: Which results are given for `Nc1n[nH]c2ccc(CN3C(=O)N(Cc4ccc(O)cc4)C(Cc4ccccc4)C(O)C(O)C3Cc3ccccc3)cc12` (stereo not drawn) [p-OH]?
Answer: EC50 [1, 23]: 79 nM; EC50 [2, 24]: 55 nM; EC50 [3, 25]: 32 nM; EC50 [4, 26]: 19 nM; EC50 [6, 27]: 39 nM

Question: What does the source list for `O=C1N(Cc2ccccc2)[C@H](Cc2ccccc2)[C@H](O)[C@@H](O)[C@@H](Cc2ccccc2)N1Cc1ccc2[nH]ncc2c1` [reference compound]?
Answer: EC50 [8, 28]: 193 nM; EC50 [1, 20]: 281 nM; EC50 [2, 21]: 772 nM; EC50 [3, 22]: 705 nM; EC50 [5]: 2310 nM; IC50 [7]: 43.3 nM
